Here are results for one compound from patent US9913831B2, “Methods and compositions for treating nephrogenic diabetes insipidus” (UNIVERSITY OF UTAH RESEARCH FOUNDATION, priority 2011, dated 2018).

The subject of one series is AQP2 protein. The note with it: mice, lithium diet + clopidogrel 80 mg/kg bw/day 14 days. On the procedure:
The effect of administration of clopidogrel on lithium-induced polyuria was determined in mice (B6D2 genetic background). Groups of mice were administered either a lithium-containing diet (40 mmol/kg chow; custom prepared by MP Biomedicals, Aurora, Ohio) or lithium-containing diet plus clopidogrel (80 mg per kg body weight per day in drinking water) for 14 days. Twenty-four urine samples were collected prior to the start of the treatment (day 0), on days 8 and 9, and days 13 and 14. The data plotted in the graphs represent the mean of the values obtained on the two consecutive days. Results are mean±SE; n=5 for LI alone group and n=6 for LI+CLPD group; ANOVA followed by Tukey Kramer Multiple Comparison Test.

Series [1] has as its system AQP2 water channel protein. As to conditions: normal rats, clopidogrel 20 mg/kg bw/day in drinking water 13 days, vs control. How it is done:
(§1) Tissue samples were prepared and immnoblotted for semi-quantitative determination of protein abundances of P2Y12 receptor, and β-actin by the methods described previously (Zhang et al, ibid, 2008, 2009, 2010). Whole tissue homogenates were prepared in the presence of protease inhibitors, and the concentrations of proteins in the homogenates were determined, and solubilized in Laemmli buffer. Then the solubilized proteins were size fractionated on 12% SDS-polyacrylamide gels. Quality of tissue sample preparation and equality of protein loading were verified by staining parallel-run loading gels with Coomassie-blue (Gelcode Blue, Pierce Endogen, Rockford, Ill.). The size fractionated proteins were electrotransferred to nitrocellulose membranes, and blocked with buffer containing non-fat milk. Differences in protein loading were corrected by normalizing the band densities of the target proteins to that of β-actin (polyclonal antibody from Biolegend, San Diego, Calif., USA). After washing, the blocked membranes were incubated with rabbit polyclonal antibodies to either P2Y12 receptor (AnaSpec, Fremont, Calif.) or aquaporin-2 (AQP2; Zhang et al, ibid, 2008) or AQP1 (commercial source) or β-actin (Biolegend, San Diego, Calif.). Non-specific binding was prevented by incubation of the membranes with goat serum. Generation and characterization of AQP2 antibody (GN-762) was described previously (Kishore et al, 2000; Zhang et al, 2008). When peptide block was tested, prior to its use on the membranes the P2Y12 receptor antibody was pre-adsorbed by incubation with the blocking peptide as per the instructions of the supplier (AnaSpec, Fremont, Calif.). After washing off the primary antibodies, the nitrocellulose membranes were incubated with a peroxidase-conjugated secondary antibody to rabbit IgG (Dako North America, Carpinteria, Calif.). Chemiluminescence reaction was used to detect sites of antigen-antibody reactions (SuperSignal Substrate; Pierce Endogen, Rockford, Ill.), and captured on an X-ray film. Images were digitized and band densities were quantified by using Un-San-It software (Silk Scientific, Orem, Utah). The band densities of AQP2 were normalized by the band densities of β-actin. Mean values of relative band densities thus obtained for P2Y12 receptor were expressed as percent of the mean values obtained in the control group of animals.
(§2) Clopidogrel bisulfate was given orally to a group of Sprague-Dawley rats (n=4) for 13 days by dissolving powdered Plavix® tablets (75 mg base; Bristol-Myers Squibb/Sanofi, Bridgeport, N.J.) in drinking water, so that the rats consumed at least 20 mg of clopidogrel bisulfate base per kg body weight per day. The concentration of the drug in the drinking water was adjusted daily based on the water consumption of the rats the previous day. Another group of rats (n=4) was given plain water and this group served as controls.

The subject of another series is P2Y12 receptor. The note with it: normal rats, clopidogrel 20 mg/kg bw/day 13 days. How it is done:
as §1, §2

The next series concerns AQP1 water channel. The note with it: normal rats, clopidogrel 20 mg/kg bw/day 13 days. On the procedure: as §1, §2
The test system of a further series is Brattleboro mutant rats. The note with it: Brattleboro rats lacking AVP, clopidogrel 40 mg/kg bw/day in drinking water 2 weeks. On the procedure:
Animal experiments: Male Sprague-Dawley rats were purchased from Charles River (Wilmington, Mass., USA), and Brattleboro mutant rats that lack AVP (HsdBlu:BRAT-Avp^di) were obtained from the Rat Resource & Research Center (RRRC), University of Missouri, Columbia, Mo., USA. Mice (B6D2 genetic background) were bred in-house. […] Lithium-added chow (40 mmol Li/kg chow) was custom prepared (MP Biomedicals, Aurora, Ohio, USA). Clopidogrel bisulfate was administered orally by powdering and dissolving Plavix® tablets (Bristol-Myers Squibb, New York, N.Y., USA) in drinking water. The concentration of the drug in the drinking water was adjusted daily based on the water consumption of the animals the previous day. […]
Blood, urine and tissue analysis: Osmolalities of clear urine samples were measured by vapor pressure method (Wescor, Logan, Utah, USA). Microhematocrit was determined by centrifuging free-flowing blood collected in heparinized capillary tubes in a microhematocrit centrifuge (Clay Adams, Parsippany, N.J., USA). Urinary excretion of AVP was quantified by a commercial ELISA kit (Enzo Life Sciences, Farmingdale, N.Y., USA). Total nitrate/nitrite contents of urine samples were determined by a commercial kit (Cayman Chemical, Ann Arbor, Mich.).Na, Li and K levels in serum and/or urine were determined on EasyElectrolyte® (Medica Corp., Bedford, Mass., USA). […]

The test system of another series is rats. As to conditions: upto 4 weeks; cited from earlier work.

On to `COC(=O)[C@H](c1ccccc1Cl)N1CCc2sccc2C1` [clopidogrel], for which the “lithium-induced decrease in AQP2 protein abundance in the renal medulla” value in the series with AQP2 protein was “significantly prevented”. Moreover, the “increase of AQP2 protein abundance in the inner medulla” value in series [1] (P<0.002) is 1.9 fold. The “increase of AQP2 protein abundance in the cortex” value in series [1] (P<0.02) is 2.7 fold. Besides, the “increase of AQP2 protein abundance in the outer medulla” value in series [1] (P=0.24) is recorded as “not in the outer medulla”. Moreover, the “protein abundance of P2Y12 receptor in the kidney” value in the series with P2Y12 receptor was “did not appear to alter”. In the series on AQP1 water channel, the “protein abundance of AQP1 water channel in the kidney” value is reported as “did not appear to alter”. The urinary concentrating ability result in the series on Brattleboro mutant rats was “did not increase”. For the same compound, the “doses free from toxicity” value in the series with rats is no more than 165 mg/kg bw/day.
